The source made the active and inactive calls. No cut-off for these calls is given here.
Key:
Mu-type opioid receptor [1] = biological target: T1, Mu-type opioid receptor (Homo sapiens, UniProt P35372); assay: Antagonist activity at human mu opioid receptor expressed in CHO cells assessed as inhibition of DAMGO-induced [35S]GTPgammaS binding; assay type: functional, cell-based
Mu-type opioid receptor [2] = biological target: T1, Mu-type opioid receptor; assay: Displacement of [3H]DAMGO from human mu opioid receptor expressed in CHO cells; assay type: cell-based
[3] = biological target: Delta-type opioid receptor (Homo sapiens, UniProt P41143); assay: Displacement of [3H]Naltrindole from human delta opioid receptor expressed in CHO cells; assay type: cell-based
[4] = biological target: T2, Kappa-type opioid receptor (Homo sapiens, UniProt P41145); assay: Displacement of [3H]U69,593 from human kappa opioid receptor expressed in CHO cells; assay type: cell-based
[5] = biological target: T2, Kappa-type opioid receptor; assay: Agonist activity at human kappa opioid receptor expressed in CHO cells assessed as stimulation of [35S]GTPgammaS binding; assay type: functional, cell-based
Mu-type opioid receptor [6] = biological target: T1, Mu-type opioid receptor; assay: Agonist activity at human mu opioid receptor expressed in CHO cells assessed as stimulation of [35S]GTPgammaS binding; assay type: functional, cell-based
Mu-type opioid receptor [7] = biological target: T1, Mu-type opioid receptor; assay: Agonist activity at human mu opioid receptor expressed in CHO cells assessed as stimulation of [35S]GTPgammaS binding relative to basal [35S]GTPgammaS binding; assay type: functional, cell-based
CHO [8] = assay: Ratio of Ki for human delta opioid receptor to Ki for human kappa opioid receptor expressed in CHO cells; assay type: cell-based
CHO [9] = assay: Ratio of Ki for human mu opioid receptor to Ki for human kappa opioid receptor expressed in CHO cells; assay type: cell-based
[10] = Displacement of [3H]Naltrindole from human delta opioid receptor expressed in CHO cells
Mu-type opioid receptor [11] = biological target: T1, Mu-type opioid receptor; assay: Antagonist activity at human mu opioid receptor expressed in CHO cells assessed as inhibition of DAMGO-induced [35S]GTPgammaS binding at 10 uM; assay type: functional, cell-based

T1 sequence (P35372 whole entry): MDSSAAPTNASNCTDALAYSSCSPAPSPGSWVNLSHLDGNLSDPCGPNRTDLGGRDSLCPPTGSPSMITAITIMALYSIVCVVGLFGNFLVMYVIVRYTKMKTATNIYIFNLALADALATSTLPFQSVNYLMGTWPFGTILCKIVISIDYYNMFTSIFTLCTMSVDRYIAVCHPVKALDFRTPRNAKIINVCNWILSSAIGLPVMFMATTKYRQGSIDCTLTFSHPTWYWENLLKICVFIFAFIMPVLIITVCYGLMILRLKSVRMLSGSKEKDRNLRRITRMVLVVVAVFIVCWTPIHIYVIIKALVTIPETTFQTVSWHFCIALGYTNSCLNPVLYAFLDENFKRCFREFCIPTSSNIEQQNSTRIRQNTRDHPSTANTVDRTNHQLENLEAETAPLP
Chain of Delta-type opioid receptor (P41143 whole entry): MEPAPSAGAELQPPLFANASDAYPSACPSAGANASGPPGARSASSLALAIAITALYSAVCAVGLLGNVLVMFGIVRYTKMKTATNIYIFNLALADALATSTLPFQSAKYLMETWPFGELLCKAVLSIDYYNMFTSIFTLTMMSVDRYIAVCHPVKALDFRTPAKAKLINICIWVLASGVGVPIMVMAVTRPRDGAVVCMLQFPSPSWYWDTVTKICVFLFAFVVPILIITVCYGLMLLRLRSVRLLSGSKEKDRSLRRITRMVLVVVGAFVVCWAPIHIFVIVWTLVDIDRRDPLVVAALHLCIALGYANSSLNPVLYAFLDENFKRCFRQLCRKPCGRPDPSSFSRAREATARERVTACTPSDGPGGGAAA
T2 sequence (P41145 whole entry): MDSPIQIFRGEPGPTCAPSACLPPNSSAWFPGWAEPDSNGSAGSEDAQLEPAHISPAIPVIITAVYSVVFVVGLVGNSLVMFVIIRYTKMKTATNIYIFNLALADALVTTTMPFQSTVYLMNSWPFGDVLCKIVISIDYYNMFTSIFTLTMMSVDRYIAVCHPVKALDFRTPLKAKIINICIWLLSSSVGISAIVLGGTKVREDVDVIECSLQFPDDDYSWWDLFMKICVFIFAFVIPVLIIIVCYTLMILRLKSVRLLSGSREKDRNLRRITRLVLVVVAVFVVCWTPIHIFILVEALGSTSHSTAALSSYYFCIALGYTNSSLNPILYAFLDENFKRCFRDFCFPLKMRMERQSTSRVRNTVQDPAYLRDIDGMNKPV

| SMILES | Imax (Mu-type opioid receptor [1]) | Ki (Mu-type opioid receptor [2]) [nM] | Ki [3] [nM] | Ki [4] [nM] | EC50 [5] [nM] | Emax (Mu-type opioid receptor [7]) [%] | Ratio Ki (CHO [8]) | Ratio Ki (CHO [9]) | other results |
| --- | --- | --- | --- | --- | --- | --- | --- | --- | --- |
| C[C@@H](NC(=O)[C@@H](N)Cc1ccc(O)cc1)C(=O)NCC(=O)N(C)[C@@H](Cc1ccccc1)C(=O)NCCO [DAMGO] | inactive |  |  |  |  |  |  |  | IC50 (Mu-type opioid receptor [1]; cho): Not Active |
| C[C@H]1C2Cc3cc4[nH]cnc4cc3[C@@]1(C)CCN2CC1CC1 |  | 0.31 | 5.1 | 0.063 | 4.7 |  |  |  | IC50 (Mu-type opioid receptor [1]; read-out: IC50): 170 nM; EC50 (Mu-type opioid receptor [6]): 9.8 nM |
| Cc1nc2cc3c(cc2[nH]1)[C@@]1(C)CCN(CC2CC2)C(C3)[C@@H]1C | 100% | 0.77 | 18 | 0.05 | 5.8 | 55 |  |  | IC50 (Mu-type opioid receptor [1]; read-out: IC50): 11000 nM; EC50 (Mu-type opioid receptor [6]): 18 nM |
| Cc1nc2c3c(ccc2[nH]1)CC1[C@H](C)[C@]3(C)CCN1CC1CC1 |  | 2.5 | 160 | 0.51 |  |  | 310 | 5 |  |
| C[C@H]1C2Cc3cc4cc[nH]c4cc3[C@@]1(C)CCN2CC1CC1 |  | 18 |  | 7 |  |  | 36 | 3 | Ki [10]: 250 nM |
| C[C@H]1C2Cc3ccc4[nH]cnc4c3[C@@]1(C)CCN2CC1CC1 |  | 9.5 | 680 | 0.92 |  |  | 740 | 10 |  |
| C[C@H]1C2Cc3cc4nc(O)[nH]c4cc3[C@@]1(C)CCN2CC1CC1 |  | 60 | 730 | 12 |  |  | 61 | 5 |  |
| C[C@H]1C2Cc3cc4nn[nH]c4cc3[C@@]1(C)CCN2CC1CC1 |  |  |  |  | 77 | < 20 |  |  | Imax (Mu-type opioid receptor [11]): 73% |
| C[C@H]1C2Cc3cc4nc[nH]c4cc3[C@@]1(C)CCN2CC1CC1 | 89% |  |  |  |  | 22 |  |  |  |
| C[C@H]1C2Cc3ccc4[nH]nnc4c3[C@@]1(C)CCN2CC1CC1 | 98% |  |  |  | 8.6 | 0.58 |  |  | IC50 (Mu-type opioid receptor [1]; read-out: IC50): 99 nM |
| C[C@H]1[C@H]2Cc3ccc(O)cc3[C@]1(C)CCN2CC1CC1 [CYCLAZOCINE] |  |  | 2 | 0.07 | 1.3 |  |  |  |  |
